Measurements published in ChEMBL document CHEMBL1146649, “New highly active taxoids from 9 beta-dihydrobaccatin-9,10-acetals. Part 5” (2004).
≈ marks a conversion by molar mass, not a printed value.

Key:
[1] = system: PC-6; assay: Concentration required to inhibit human PC-6/VCR29-9 cell line growth by 50% at 72 hr exposure; type: functional; conditions: PC-6, 72 h
[2] = system: B16; assay: Antitumor activity of 11.9 mg/kg of perorally administered compound against B16 melanoma BL6 cells implanted into mice, value reported is percent compared to control; type: functional, Mus musculus; conditions: route oral
[3] = system: Mus musculus; assay: Antitumor activity of 5.3 mg/kg of intravenously administered compound against B16 melanoma BL6 cells implanted into mice, value reported is percent compared to control; type: functional; conditions: route intravenous
[4] = system: Mus musculus; assay: Number of mice died at 7.8 mg/kg of intravenous dose of compound among the total 6 mice tested; type: functional
[5] = system: Mus musculus; assay: Number of mice died at 26.7 mg/kg of peroral dose of compound among the total 6 mice tested; type: functional; conditions: route oral
[6] = system: Mus musculus; assay: Number of mice died at 7.9 mg/kg of peroral dose of compound among the total 6 mice tested; type: functional; conditions: route oral
[7] = system: B16; assay: Antitumor activity of 17.8 mg/kg of perorally administered compound against B16 melanoma BL6 cells implanted into mice, value reported is percent compared to control; type: functional, Mus musculus; conditions: route oral
[8] = system: Mus musculus; assay: Maximum rate of body weight loss after peroral administration of 17.8 mg/kg of compound in mice; type: functional; conditions: route oral
[9] = system: Mus musculus; assay: Maximum rate of body weight loss after peroral administration of 11.9 mg/kg of compound in mice; type: functional; conditions: route oral
[10] = system: Mus musculus; assay: Effective dose of intravenously administered compound against B16 melanoma BL6 cells implanted into mice; range is 7.8-11.9; type: functional; conditions: B16, iv
[11] = system: Mus musculus; assay: Number of mice died at 17.8 mg/kg of intravenous dose among the total 6 mice tested; type: functional
[12] = system: Mus musculus; assay: Maximum rate of body weight loss after intravenous administration of 5.3 mg/kg of compound in mice; <0 indicates no weight loss; type: functional
[13] = system: Mus musculus; assay: Number of mice died at 11.9 mg/kg of peroral dose, among the total 6 mice tested; type: functional; conditions: route oral
[14] = system: PC-12; assay: Concentration required to inhibit human PC-12 cell line growth by 50% at 72 hr continuous exposure; type: functional; conditions: PC-12, 72 h
[15] = system: B16; assay: Antitumor activity of 11.9 mg/kg of intravenously administered compound against B16 melanoma BL6 cells implanted into mice, value reported is percent compared to control; type: functional, Mus musculus; conditions: route intravenous
[16] = system: Mus musculus; assay: Maximum rate of body weight loss after peroral administration of 7.9 mg/kg of compound in mice; <0 indicates no weight loss; type: functional; conditions: route oral
[17] = system: Mus musculus; assay: Maximum rate of body weight loss after intravenous administration of 11.9 mg/kg of compound in mice; type: functional
[18] = system: PC-6; assay: Concentration required to inhibit human PC-6 cell line growth by 50% at 72 hr continuous exposure; type: functional; conditions: PC-6, 72 h
[19] = system: P388; assay: Concentration required to inhibit mouse P388 cell line growth by 50% at 72 hr continuous exposure; type: functional; conditions: P388, 72 h
[20] = system: PC-6; assay: Concentration required to inhibit human PC-6/VP1-1 cell line growth by 50% at 72 hr exposure; type: functional; conditions: PC-6, 72 h
[21] = system: Mus musculus; assay: Maximum rate of body weight loss after intravenous administration of 7.8 mg/kg of compound in mice; type: functional
[22] = system: Mus musculus; assay: Number of mice died at 5.3 mg/kg of intravenous dose of compound among the total 6 mice tested; type: functional
[23] = system: Mus musculus; assay: Number of mice died at 11.9 mg/kg of intravenous dose, among the total 6 mice tested; type: functional
[24] = system: Mus musculus; assay: Number of mice died at 17.8 mg/kg of peroral dose among the total 6 mice tested; type: functional; conditions: route oral
[25] = system: Mus musculus; assay: Effective dose of perorally administered compound against B16 melanoma BL6 cells implanted into mice; range is 11.9-17.8; type: functional; conditions: B16, po
[26] = system: Mus musculus; assay: Antitumor activity of 7.8 mg/kg of intravenously administered compound against B16 melanoma BL6 cells implanted into mice, value reported is percent compared to control; type: functional; conditions: route intravenous
[27] = system: Mus musculus; assay: Antitumor activity of 7.9 mg/kg of perorally administered compound against B16 melanoma BL6 cells implanted into mice, value reported is percent compared to control; type: functional; conditions: route oral
[28] = system: Mus musculus; assay: Effective dose of intravenously administered compound against B16 melanoma BL6 cells implanted into mice; range is 3.5-5.3; type: functional; conditions: B16, iv
[29] = system: B16; assay: Effective dose of perorally administered compound against B16 melanoma BL6 cells implanted into mice; type: functional; conditions: Mus musculus, B16, po
[30] = system: PC-6; assay: Concentration that inhibited the growth of PC-6/VCR29-9 cells by 50% at 72 hr continuous exposure; type: functional; conditions: Homo sapiens, PC-6, 72 h
[31] = system: Mus musculus; assay: Effective dose of intravenously administered compound against B16 melanoma BL6 cells implanted into mice; range is 7.8-17.8; type: functional; conditions: B16, iv

CC(=O)O[C@@]12CO[C@@H]1CC[C@@]1(C)[C@@H]3O[C@H](CN4CCOCC4)O[C@@H]3C3=C(C)[C@@H](OC(=O)[C@H](O)[C@@H](NC(=O)OC(C)(C)C)C(C)(C)C)C[C@@](O)([C@@H](OCc4ccccc4)[C@@H]12)C3(C)C
GI50 [1]: 0.85 ng/mL (≈ 0.976 nM) | IR [2]: 63.4% | IR [3]: 28.6% | Mortality [4]: 0 | Mortality [5]: 6 | Mortality [6]: 0 | IR [7]: 90.3% | BWLmax [8]: 11.7% | BWLmax [9]: 0.4% | ED50 [10]: 11.9 mg/kg | Mortality [11]: 6 | BWLmax [12]: <0% | Mortality [13]: 0 | GI50 [14]: 0.13 ng/mL (≈ 0.149 nM) | IR [15]: 93.8% | BWLmax [16]: <0% | BWLmax [17]: 10.5% | GI50 [18]: 0.7 ng/mL (≈ 0.804 nM) | GI50 [19]: 0.34 ng/mL (≈ 0.39 nM) | GI50 [20]: 5.56 ng/mL (≈ 6.38 nM) | BWLmax [21]: <1.2% | Mortality [22]: 0 | Mortality [23]: 0 | Mortality [24]: 0 | ED50 [25]: 17.8 mg/kg | IR [26]: 71.9% | IR [27]: 25.5%

CC(=O)O[C@@]12CO[C@@H]1CC[C@@]1(C)[C@@H]3O[C@H](CN4CCOCC4)O[C@@H]3C3=C(C)[C@@H](OC(=O)[C@H](O)[C@@H](NC(=O)OC(C)(C)C)c4cscn4)C[C@@](O)([C@@H](OCc4ccccc4)[C@@H]12)C3(C)C
ED50 [28]: 5.3 mg/kg | ED50 [29]: 7.9 mg/kg | GI50 [30]: 1.02 ng/mL (≈ 1.14 nM) | GI50 [14]: 0.08 ng/mL (≈ 0.0891 nM) | GI50 [18]: 0.65 ng/mL (≈ 0.724 nM) | GI50 [19]: 0.03 ng/mL (≈ 0.0334 nM) | GI50 [20]: 9.13 ng/mL (≈ 10.2 nM)

CC(=O)O[C@@]12CO[C@@H]1CC[C@@]1(C)[C@@H]3O[C@H](CN(C)C)O[C@@H]3C3=C(C)[C@@H](OC(=O)[C@H](O)[C@@H](NC(=O)OC(C)(C)C)c4nccs4)C[C@@](O)([C@@H](OCc4ccccc4)[C@@H]12)C3(C)C
GI50 [1]: 2.81 ng/mL (≈ 3.28 nM) | ED50 [29]: 11.9 mg/kg | GI50 [14]: 0.35 ng/mL (≈ 0.409 nM) | GI50 [18]: 0.27 ng/mL (≈ 0.315 nM) | GI50 [19]: 0.25 ng/mL (≈ 0.292 nM) | ED50 [31]: 17.8 mg/kg | GI50 [20]: 39.1 ng/mL (≈ 45.7 nM)
